The values that follow come from patent publication US9709557B2, “Anthraquinone based near IR emitting compounds and uses thereof” (LIFE TECHNOLOGIES CORPORATION, priority 2008, dated 2017).

Where only a bound is given, the exact number is not on record here.

Data set [1] relates to Live Jurkat cells. The experiment in a line: DNA staining of live cells and cell cycle analysis using flow cytometry (Examples 42, 43). It is filed as cell-based, human. As to the method:
Live Jurkat cells are suspended at 5×10^5 cells/ml in each RPMI media with 10% FBS. Compound 19 is added to each of one mL cell suspensions at concentrations 5 μM, 10 μM, and 20 μM, and then incubated at 37° C. for 30 minutes while protected from light. Cells are run through the Becton Dickinson (BD) LSRII Flow Cytometer. Forward Scatter (FS) vs Side Scatter (SS) dual parameter plot is used to gate main cell population. Fluorescence is collected using […]: the 488 nm excitation laser with 780/60 bandpass emission filter, and using the 633 nm excitation laser with 780/60 bandpass emission filters, collecting 10,000 events at flow rate of ˜200 events/second. The data is further analyzed using MODFIT LT Flow Cytometry Modeling Software from Verity Software House, Inc. to look at ratio of G2/G1 and the % CV of G1 phase. […] Typical DNA content cell cycle histograms indicate G0G1 phase, S phase, and G2M phase, as obtained on the live cell gate, with all concentrations of the compound.
Live Jurkat cells suspended in RPMI media+10% FBS were stained with 5 μM, 10 μM, and 20 μM Compound 20 and analyzed with flow cytometry, as described in Example 42.
(In flow cytometry, cells or beads pass a laser one at a time.)

The subject of data set [2] is Live Jurkat cells. The experiment in a line: Comparison of DNA stains on cell viability (Example 44). Format: cell-based. The following applies: for % Dead Cells: ethidium homodimer-1. How it is done:
Live Jurkat cells are suspended at 5×10^5 cells/ml in complete RPMI media with 10% FBS. Four aliquots of 10 ml each of the cell suspension are made. A final concentration of 5 μM Hoechst 33342 (Invitrogen Corporation) is added to one aliquot, a final concentration of 5 μM DRAQ5 (Biostatus Limited, UK) is added to one aliquot, a final concentration of 5 μM Compound 9 is added to one aliquot, and one aliquot remains untreated as a control. All four aliquots are placed in a 37° C. waterbath for 30 minutes in protected from light. After the incubation, all cell suspensions are centrifuged, the cells are pelleted and the supernatant discarded. To each aliquot, 5 ml media is added. Four culture flasks are prepared by adding 35 ml media to each. One 5 ml aliquot of cells is added to one flask for each on the four cell suspensions aliquots. The flasks are placed in a 37° C. incubator with 5% CO2 in the dark for 72 hours. Each flask of cells is then gently mixed and cell suspension is removed for testing. The cell concentration and image is performed using the Cellometer instrument from Nexcelom. Percentage and absolute cell counts of live and dead cells for each treatment are determined using the LIVE/DEAD Viability/Cytotoxicity Kit (Invitrogen Corporation, Carlsbad, Calif.) with COUNTBRIGHT Absolute Counting Beads (Invitrogen Corporation). This involves adding one ml cell suspension to a 12×75 mm test tube and adding 2 μl of a 50 μM calcein AM solution to identify living cells and 4 μl of a 2 mM ethidium homodimer-1 solution to identify dead cells. The cell suspension is mixed and incubated for 20 minutes at room temperature protected from light. After the end of the incubation, 50 μl of well mixed COUNTBRIGHT absolute counting beads are added to each test tube. Each sample is run through the Becton Dickinson (BD) LSRII Flow Cytometer. Forward Scatter (FS) versus Side Scatter (SS) dual parameter plot is used to gate main cell population, and a separate gate is made around the bead population. Fluorescence is collected using 488 nm excitation laser with 530/30 bandpass and 610/20 bandpass emission filters. Markers on a dual parameter plot of calcein fluorescence versus ethidium homodimer-1 fluorescence is used to obtain percent of cells which are living and dead, as well as number of cell events recorded. By using the COUNTBRIGHT absolute counting beads assay, the absolute number of living and dead cells is calculated by using the equation: A/B×C/D=concentration of cells/μL (A=number of cell events, B=number of bead events, C=assigned bead count, D=volume of the sample in μl).

Data set [3] has as its system HeLa and U2OS cells. It is filed as cell-based. As to the method:
HeLa and U2OS cells were stained with DRAQ5, Hoechst 33342, mitoxantrone, and Compound 9 over a range of concentrations to evaluate the effect of the tested DNA stains on cell proliferation over time. HeLa and U2OS cells were plated at 3000 cells/well and allowed to recover overnight before proceeding with dye incubations. Cells were incubated with 0, 1, 5 or 10 μM Compound 9, Hoechst 33342, mitoxantrone, and DRAQ5 for 30 minutes at culture conditions in DPBS with glucose, washed and then placed back into media at culture conditions. Plates were stained with 100 nM YOYO-1 (Invitrogen Corporation) before being fixed and stained with 1:1000 Hoechst 33342 (total cell number) at 24, 48 and 72 hours post dye incubation. Cells were imaged with the ArrayScan VTI immediately following staining and fixation. Data obtained were from repetitions of 4 wells/condition with 10 images taken per well.

Data set [4] has as its system Jurkat cells. The data set can be described thus: Comparison of DNA stains for staining live cells, post-sort viability and growth (Example 45). Format: cell-based. The following applies: 5 μM. How it is done:
Jurkat cells were suspended at 5×10^5 cells/ml in complete RPMI media with 10% FBS and stained with either 5 μM Compound 9, 5 μM Hoechst 33342, or 5 μM DRAQ5 for 30 minutes at 37° C. protected from light. A control sample was also prepared with no dye treatment. Cells were washed and resuspended at 1×10^7 cells/ml in Complete RPMI+10% FBS media for sorting. Approximately 2 million Jurkat cells were sorted for each treatment by gating on the main cell population by scatter using a BD FACS Aria cell sorter. Cells were washed and plated at 1×10^5 cells/ml in complete media and grown at 37 C with 5% CO2. Cell Viability was assayed using the LIVE/DEAD Viability/Cytotoxicity Kit at 1, 2, and 3 days post sort (as described in Example 44). Brightfield images of cell growth after 8 days cell growth were collected. […] The percent of live cells decreased similarly in both Compound 9 and Hoechst 33342 treatments.

Where [5] appears, read: 20 μM, RPMI media+10% FBS, blue 488 laser, 780/60 emission.
The mark [6] stands for this setting: 20 μM, RPMI media+10% FBS, red 633 nm laser, 780/60 emission.
The mark [7] stands for this setting: 5 μM dye 30 min 37° C., then 72 hours culture.

Take `CN(C)CCNC(=O)CNc1ccc(O)c2c1C(=O)c1c(N)ccc(O)c1C2=O` [Compound 19]: the “% CV of G1-phase” value in data set [1] (setting [5]) is 8.0%; in data set [1] (setting [6]), 6.43%; in data set [1] (5, 10, 20 μM, MODFIT analysis), < 8%. Also, the figures for the G2/G1 ratio in data set [1] (setting [5]) and in data set [1] (setting [6]) were 1.86 and 1.83, respectively.

With `CN(C)CCNC(=O)CNc1ccc(N)c2c1C(=O)c1c(O)ccc(O)c1C2=O` [Compound 20], in data set [1] (setting [6]), the “% CV of G1-phase” value is reported as 6.41% and the G2/G1 ratio is 1.84.

Regarding `CN(C)CCNc1ccc(O)c2c1C(=O)c1c(O)ccc(NCCN(C)C)c1C2=O` [DRAQ5], the “% Dead Cells” value in data set [2] (setting [7]) is listed as 95.7%. Also, in data set [3], the “membrane permeability indicated by YOYO-1” value is “high membrane permeability”.

On to `CCOc1ccc(-c2nc3ccc(-c4nc5ccc(N6CCN(C)CC6)cc5[nH]4)cc3[nH]2)cc1` [Hoechst 33342], for which, in data set [2] (setting [7]), the “Cell Count (Cellometer)” value is reported as 2.6 × 10^5 cells/mL, the “Cell Count (Flow Cytommetry)” value is given as 0.9 × 10^5 cells/mL and the “% Dead Cells” value is 39.3%. Besides, the “% Living Cells” value in data set [2] (5 μM dye 30 min 37° C., then 72 hours culture, calcein AM) is reported as 57.7%. Also, the “effect of treatment on cell viability” value in data set [2] (5 μM, 72 hours) is on record as “maintained a majority of cells as living”. Besides, in data set [4] (30 min 37° C., sorted, 1, 2 and 3 days post sort), the “post-sort viability / cytotoxicity” value is given as “very similar in post-sort viability, but less than non-stained control cells”. For the same compound, the “cell growth after sort” value in data set [4] (day 3 and 8 days post sort) is recorded as “beginning to divide again”.
